In the supplement of paper PMC10307832:

Assays:
Assay in all cases: relative viability (nuclei count vs DMSO), 5 days (fraction); higher = more cells survive
Venetoclax + Palbociclib = compound: CC1(C)CCC(CN2CCN(c3ccc(C(=O)NS(=O)(=O)c4ccc(NCC5CCOCC5)c([N+](=O)[O-])c4)c(Oc4cnc5[nH]ccc5c4)c3)CC2)=C(c2ccc(Cl)cc2)C1 [Venetoclax] + CC(=O)c1c(C)c2cnc(Nc3ccc(N4CCNCC4)cn3)nc2n(C2CCCC2)c1=O [Palbociclib] (partner 0.5 µM)
Procedure, shortened: (§1)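 Each reported value is a median over duplicate plates. It expresses relative viability: treated-well nuclei count divided by vehicle-well nuclei count. Lung cancer cell lines in 1536-well plates were dosed by pin tool a day after seeding, alone with one drug or with a fixed anchor-drug dose plus five library-drug doses (not always all listed) in √10 steps, and nuclei were counted after 5 days.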

Venetoclax + Pemetrexed = compound: CC1(C)CCC(CN2CCN(c3ccc(C(=O)NS(=O)(=O)c4ccc(NCC5CCOCC5)c([N+](=O)[O-])c4)c(Oc4cnc5[nH]ccc5c4)c3)CC2)=C(c2ccc(Cl)cc2)C1 [Venetoclax] + Nc1nc2[nH]cc(CCc3ccc(C(=O)N[C@@H](CCC(=O)O)C(=O)O)cc3)c2c(=O)[nH]1 [Pemetrexed] (partner 0.2 µM)
Procedure, shortened: as §1

Selumetinib + Alpelisib = compound: Cn1cnc2c(F)c(Nc3ccc(Br)cc3Cl)c(C(=O)NOCCO)cc21 [Selumetinib] + Cc1nc(NC(=O)N2CCC[C@H]2C(N)=O)sc1-c1ccnc(C(C)(C)C(F)(F)F)c1 [Alpelisib] (partner 2 µM)
Procedure, shortened: as §1

Selumetinib + Decitabine = compound: Cn1cnc2c(F)c(Nc3ccc(Br)cc3Cl)c(C(=O)NOCCO)cc21 [Selumetinib] + Nc1ncn([C@H]2C[C@H](O)[C@@H](CO)O2)c(=O)n1 [Decitabine] (partner 2 µM)
Procedure, shortened: as §1

| Cell Line | relative viability (Venetoclax + Palbociclib; first compound 0.01 µM) | relative viability (Venetoclax + Palbociclib; first compound 0.03162 µM) | relative viability (Venetoclax + Palbociclib; first compound 0.1 µM) | relative viability (Venetoclax + Palbociclib; first compound 0.3162 µM) | relative viability (Venetoclax + Palbociclib; first compound 1 µM) | relative viability (Venetoclax + Pemetrexed; first compound 0.01 µM) | relative viability (Venetoclax + Pemetrexed; first compound 0.03162 µM) | relative viability (Venetoclax + Pemetrexed; first compound 0.1 µM) | relative viability (Venetoclax + Pemetrexed; first compound 0.3162 µM) | relative viability (Venetoclax + Pemetrexed; first compound 1 µM) | relative viability (Selumetinib + Alpelisib; first compound 0.02 µM) | relative viability (Selumetinib + Alpelisib; first compound 0.06325 µM) | relative viability (Selumetinib + Alpelisib; first compound 0.2 µM) | relative viability (Selumetinib + Alpelisib; first compound 0.6325 µM) | relative viability (Selumetinib + Decitabine; first compound 0.02 µM) | relative viability (Selumetinib + Decitabine; first compound 0.06325 µM) | relative viability (Selumetinib + Decitabine; first compound 0.2 µM) | relative viability (Selumetinib + Decitabine; first compound 0.6325 µM) |
| --- | --- | --- | --- | --- | --- | --- | --- | --- | --- | --- | --- | --- | --- | --- | --- | --- | --- | --- |
| COR-L 105 | 0.414 | 0.399 | 0.384 | 0.365 | 0.413 | 0.738 | 1.03 | 1.11 | 1.16 | 1.07 | 1.29 | 0.746 | 0.767 | 0.6 | 0.637 | 0.507 | 0.452 | 0.45 |
| SW 1573 | 0.337 | 0.422 | 0.377 | 0.36 | 0.362 | 0.784 | 0.808 | 0.784 | 0.843 | 0.846 | 0.868 | 0.707 | 0.618 | 0.552 | 0.505 | 0.369 | 0.384 | 0.373 |
| NCI-H1355 | 0.428 | 0.387 | 0.404 | 0.424 | 0.356 | 1.02 | 1.08 | 1.01 | 1.08 | 1.01 | 0.77 | 0.791 | 0.591 | 0.444 | 0.385 | 0.357 | 0.377 | 0.329 |
| RERF-LC-KJ | 1.05 | 1.08 | 0.988 | 1.03 | 1.03 | 0.473 | 0.487 | 0.45 | 0.438 | 0.506 | 0.858 | 0.772 | 0.693 | 0.636 | 0.682 | 0.608 | 0.639 | 0.737 |
| NCI-H1734 | 0.331 | 0.383 | 0.346 | 0.394 | 0.318 | 0.417 | 0.459 | 0.399 | 0.422 | 0.393 | 0.638 | 0.66 | 0.587 | 0.596 | 0.53 | 0.479 | 0.502 | 0.528 |
| NCI-H2126 | 0.368 | 0.34 | 0.363 | 0.374 | 0.336 | 0.748 | 0.737 | 0.67 | 0.653 | 0.611 | 0.679 | 0.675 | 0.58 | 0.532 | 0.559 | 0.513 | 0.564 | 0.56 |
| NCI-H1792 | 0.657 | 0.678 | 0.65 | 0.699 | 0.583 | 0.416 | 0.998 | 0.7 | 0.815 | 0.618 | 0.684 | 0.603 | 0.485 | 0.386 | 0.635 | 0.486 | 0.52 | 0.425 |
| NCI-H23 | 0.514 | 0.598 | 0.495 | 0.491 | 0.413 | 0.671 | 0.747 | 0.597 | 0.76 | 0.588 | 0.628 | 0.589 | 0.438 | 0.358 | 0.324 | 0.268 | 0.319 | 0.302 |
| EMC-BAC-2 | 0.5 | 0.555 | 0.533 | 0.541 | 0.486 | 0.406 | 0.457 | 0.407 | 0.467 | 0.417 | 0.678 | 0.694 | 0.645 | 0.712 | 0.991 | 0.976 | 0.997 | 0.942 |
| NCI-H2023 | 0.382 | 0.338 | 0.349 | 0.329 | 0.33 | 0.238 | 0.243 | 0.263 | 0.264 | 0.203 | 0.592 | 0.429 | 0.471 | 0.547 | 0.232 | 0.211 | 0.209 | 0.247 |
| NCI-H647 | 0.504 | 0.488 | 0.34 | 0.365 | 0.269 | 0.164 | 0.192 | 0.206 | 0.178 | 0.178 | 1.14 | 1.09 | 0.932 | 0.809 | 0.354 | 0.351 | 0.621 | 0.447 |
| NCI-H661 | 0.401 | 0.411 | 0.396 | 0.392 | 0.392 | 0.933 | 0.922 | 0.861 | 0.897 | 0.901 | 0.653 | 0.598 | 0.501 | 0.606 | 0.572 | 0.492 | 0.546 | 0.51 |
| NCI-H1975 | 0.667 | 0.672 | 0.506 | 0.515 | 0.534 | 0.261 | 0.279 | 0.276 | 0.309 | 0.281 | 0.643 | 0.511 | 0.413 | 0.37 | 0.615 | 0.384 | 0.385 | 0.334 |
| NCI-H1437 | 0.314 | 0.303 | 0.282 | 0.285 | 0.251 | 0.309 | 0.316 | 0.328 | 0.309 | 0.308 | 0.914 | 0.855 | 0.292 | 0.206 | 0.614 | 0.537 | 0.464 | 0.544 |
| NCI-H1666 | 0.625 | 0.656 | 0.631 | 0.627 | 0.656 | 0.726 | 0.916 | 0.919 | 0.805 | 0.799 | 0.701 | 0.721 | 0.478 | 0.551 | 0.758 | 0.682 | 0.689 | 0.71 |
| NCI-H2085 | 0.441 | 0.471 | 0.486 | 0.454 | 0.47 | 0.756 | 0.948 | 0.86 | 0.823 | 0.798 | 0.884 | 0.742 | 0.796 | 0.873 | 0.524 | 0.593 | 0.537 | 0.544 |
| LXF-289 | 0.624 | 0.592 | 0.631 | 0.556 | 0.552 | 0.986 | 0.948 | 0.782 | 0.873 | 0.79 | 0.928 | 0.854 | 0.841 | 0.762 | 0.356 | 0.418 | 0.36 | 0.437 |
| NCI-H322M | 0.489 | 0.487 | 0.389 | 0.412 | 0.485 | 0.606 | 0.581 | 0.598 | 0.627 | 0.596 | 0.643 | 0.549 | 0.563 | 0.532 | 0.722 | 0.71 | 0.598 | 0.548 |
| LU99A | 0.377 | 0.465 | 0.384 | 0.39 | 0.427 | 0.177 | 0.239 | 0.163 | 0.172 | 0.178 | 0.551 | 0.501 | 0.489 | 0.573 | 0.982 | 0.905 | 0.91 | 0.759 |
| NCI-H650 | 0.319 | 0.387 | 0.345 | 0.366 | 0.303 | 0.911 | 1.02 | 1.03 | 0.89 | 0.836 | 1.33 | 1.08 | 1.19 | 1.09 | 0.334 | 0.283 | 0.342 | 0.376 |
| PC-14 | 0.521 | 0.514 | 0.546 | 0.574 | 0.437 | 0.154 | 0.135 | 0.13 | 0.14 | 0.143 | 0.92 | 0.835 | 0.925 | 0.848 | 0.241 | 0.2 | 0.227 | 0.179 |
| HARA | 0.289 | 0.279 |  | 0.26 | 0.272 | 0.216 | 0.247 |  | 0.329 | 0.284 | 0.701 | 0.647 | 0.549 | 0.353 | 0.691 | 0.502 | 0.602 | 0.483 |
| SK-MES-1 | 0.329 | 0.336 | 0.327 | 0.326 | 0.286 | 0.918 | 1.08 | 0.994 | 0.956 | 0.754 | 0.851 | 0.587 | 0.56 | 0.396 | 0.416 | 0.307 | 0.356 | 0.323 |
| HOP-62 | 0.43 | 0.462 | 0.373 | 0.427 | 0.4 | 0.356 | 0.335 | 0.287 | 0.313 | 0.355 | 0.86 | 0.962 | 0.965 | 0.465 | 0.164 | 0.278 | 0.238 | 0.232 |
| LK-2 | 0.681 | 0.682 | 0.815 | 0.65 | 0.688 | 0.331 | 0.381 | 0.255 | 0.249 | 0.227 | 1.01 | 1.13 | 0.949 | 0.985 | 0.305 | 0.278 | 0.404 | 0.399 |
| HCC-44 | 0.928 | 0.954 | 0.934 | 0.899 | 0.919 | 0.667 | 0.673 | 0.63 | 0.649 | 0.656 | 0.88 | 0.72 | 0.719 | 0.663 | 1.03 | 0.982 | 0.962 | 0.942 |
| BEN | 0.519 | 0.469 | 0.49 | 0.489 | 0.498 | 0.811 | 0.826 | 0.712 | 0.855 | 0.769 | 1.02 | 0.932 | 0.861 | 0.886 | 0.704 | 0.733 | 0.714 | 0.731 |
| NCI-H2405 | 0.52 | 0.533 | 0.531 | 0.529 | 0.513 | 0.98 | 1.16 | 0.979 | 1.06 | 0.963 | 0.737 | 0.472 | 0.427 | 0.277 | 0.733 | 0.751 | 0.736 | 0.615 |
| NCI-H1395 | 0.62 | 0.609 | 0.576 | 0.603 | 0.58 | 0.823 | 0.862 | 0.764 | 0.95 | 0.819 | 0.981 | 1.05 | 0.953 | 1.02 | 0.698 | 0.712 | 0.675 | 0.639 |
